Reference: the supplement of paper PMC10307832

Experiments:
Experiment in all cases: relative viability (nuclei count vs DMSO), 5 days (fraction); higher = more cells survive
NCI-H1792 = test system: NCI-H1792
Method in brief: (§1)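 Lung cancer cell lines in 1536-well plates were dosed by pin tool the day after seeding, either with one drug alone or with a fixed anchor-drug dose plus five library-drug doses (not always all listed) in √10 steps. After 5 days, cells were fixed and their nuclei stained in one step (final 0.05% Triton X-100, 1% formaldehyde, 1 ug/ml Hoechst), then counted on 4× images. Relative viability is the nuclei count in treated wells divided by that in vehicle wells. Values are medians of duplicate plates.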

LU99A = test system: LU99A
Method in brief: as §1

HCC-827 = test system: HCC-827
Method in brief: as §1

NCI-H2126 = test system: NCI-H2126
Method in brief: as §1

SK-MES-1 = test system: SK-MES-1
Method in brief: as §1

NCI-H727 = test system: NCI-H727
Method in brief: as §1

NCI-H1734 = test system: NCI-H1734
Method in brief: as §1

COR-L 105 = test system: COR-L 105
Method in brief: as §1

BEN = test system: BEN
Method in brief: as §1

LCLC-97TM1 = test system: LCLC-97TM1
Method in brief: as §1

SW 1573 = test system: SW 1573
Method in brief: as §1

EMC-BAC-2 = test system: EMC-BAC-2
Method in brief: as §1

LOU-NH91 = test system: LOU-NH91
Method in brief: as §1

RERF-LC-KJ = test system: RERF-LC-KJ
Method in brief: as §1

EKVX = test system: EKVX
Method in brief: as §1

EPLC-272H = test system: EPLC-272H
Method in brief: as §1

NCI-H358 = test system: NCI-H358
Method in brief: as §1

LK-2 = test system: LK-2
Method in brief: as §1

NCI-H2087 = test system: NCI-H2087
Method in brief: as §1

HCC-78 = test system: HCC-78
Method in brief: as §1

NCI-H1944 = test system: NCI-H1944
Method in brief: as §1

O=c1[nH]c2ccccc2n1C1CCN(CCCC(c2ccc(F)cc2)c2ccc(F)cc2)CC1 [Pimozide] + C[C@]1(O)C[C@@H](c2nc(-c3ccc4ccc(-c5ccccc5)nc4c3)c3c(N)nccn32)C1 [Linsitinib] (partner 1 µM)
relative viability (NCI-H1792; first compound 0.08 µM): 0.524
relative viability (NCI-H1792; first compound 0.253 µM): 0.495
relative viability (NCI-H1792; first compound 0.8 µM): 0.417
relative viability (NCI-H1792; first compound 2.53 µM): 0.444
relative viability (NCI-H1792; first compound 8 µM): 0.571
relative viability (LU99A; first compound 0.08 µM): 0.544
relative viability (LU99A; first compound 0.253 µM): 0.409
relative viability (LU99A; first compound 0.8 µM): 0.514
relative viability (LU99A; first compound 2.53 µM): 0.596
relative viability (LU99A; first compound 8 µM): 0.504
relative viability (HCC-827; first compound 0.253 µM): 0.986
relative viability (HCC-827; first compound 0.8 µM): 0.915
relative viability (HCC-827; first compound 2.53 µM): 0.944
relative viability (HCC-827; first compound 8 µM): 0.939
relative viability (NCI-H2126; first compound 0.08 µM): 0.747
relative viability (NCI-H2126; first compound 0.253 µM): 0.662
relative viability (NCI-H2126; first compound 0.8 µM): 0.713
relative viability (NCI-H2126; first compound 2.53 µM): 0.74
relative viability (NCI-H2126; first compound 8 µM): 0.774
relative viability (SK-MES-1; first compound 0.08 µM): 0.993
relative viability (SK-MES-1; first compound 0.253 µM): 1.04
relative viability (SK-MES-1; first compound 0.8 µM): 1.07
relative viability (SK-MES-1; first compound 2.53 µM): 1.11
relative viability (SK-MES-1; first compound 8 µM): 1.09
relative viability (NCI-H727; first compound 0.08 µM): 0.285
relative viability (NCI-H727; first compound 0.253 µM): 0.337
relative viability (NCI-H727; first compound 0.8 µM): 0.307
relative viability (NCI-H727; first compound 2.53 µM): 0.281
relative viability (NCI-H727; first compound 8 µM): 0.526
relative viability (NCI-H1734; first compound 0.08 µM): 0.88
relative viability (NCI-H1734; first compound 0.253 µM): 0.829
relative viability (NCI-H1734; first compound 0.8 µM): 0.878
relative viability (NCI-H1734; first compound 2.53 µM): 0.944
relative viability (NCI-H1734; first compound 8 µM): 0.972
relative viability (COR-L 105; first compound 0.253 µM): 1.01
relative viability (COR-L 105; first compound 0.8 µM): 0.795
relative viability (COR-L 105; first compound 2.53 µM): 0.844
relative viability (COR-L 105; first compound 8 µM): 0.562
relative viability (BEN; first compound 0.08 µM): 1.07
relative viability (BEN; first compound 0.253 µM): 1.02
relative viability (BEN; first compound 0.8 µM): 0.856
relative viability (BEN; first compound 2.53 µM): 0.88
relative viability (BEN; first compound 8 µM): 0.892
relative viability (LCLC-97TM1; first compound 0.08 µM): 0.179
relative viability (LCLC-97TM1; first compound 0.253 µM): 0.166
relative viability (LCLC-97TM1; first compound 0.8 µM): 0.171
relative viability (LCLC-97TM1; first compound 2.53 µM): 0.169
relative viability (LCLC-97TM1; first compound 8 µM): 0.146
relative viability (SW 1573; first compound 0.08 µM): 0.744
relative viability (SW 1573; first compound 0.253 µM): 0.778
relative viability (SW 1573; first compound 0.8 µM): 0.75
relative viability (SW 1573; first compound 2.53 µM): 0.721
relative viability (SW 1573; first compound 8 µM): 0.853
relative viability (EMC-BAC-2; first compound 0.08 µM): 0.768
relative viability (EMC-BAC-2; first compound 0.253 µM): 0.787
relative viability (EMC-BAC-2; first compound 0.8 µM): 0.828
relative viability (EMC-BAC-2; first compound 2.53 µM): 0.828
relative viability (EMC-BAC-2; first compound 8 µM): 0.749
relative viability (LOU-NH91; first compound 0.08 µM): 0.488
relative viability (LOU-NH91; first compound 0.253 µM): 0.97
relative viability (LOU-NH91; first compound 0.8 µM): 0.929
relative viability (LOU-NH91; first compound 2.53 µM): 1.1
relative viability (LOU-NH91; first compound 8 µM): 0.959
relative viability (RERF-LC-KJ; first compound 0.08 µM): 0.885
relative viability (RERF-LC-KJ; first compound 0.253 µM): 0.813
relative viability (RERF-LC-KJ; first compound 0.8 µM): 0.787
relative viability (RERF-LC-KJ; first compound 2.53 µM): 0.842
relative viability (RERF-LC-KJ; first compound 8 µM): 0.8
relative viability (EKVX; first compound 0.253 µM): 0.837
relative viability (EKVX; first compound 0.8 µM): 0.901
relative viability (EKVX; first compound 2.53 µM): 0.969
relative viability (EKVX; first compound 8 µM): 0.953
relative viability (EPLC-272H; first compound 0.08 µM): 0.913
relative viability (EPLC-272H; first compound 0.253 µM): 1.15
relative viability (EPLC-272H; first compound 0.8 µM): 1.21
relative viability (EPLC-272H; first compound 2.53 µM): 1.17
relative viability (EPLC-272H; first compound 8 µM): 1.09
relative viability (NCI-H358; first compound 0.08 µM): 0.739
relative viability (NCI-H358; first compound 0.253 µM): 0.852
relative viability (NCI-H358; first compound 0.8 µM): 0.649
relative viability (NCI-H358; first compound 2.53 µM): 0.643
relative viability (NCI-H358; first compound 8 µM): 0.693
relative viability (LK-2; first compound 0.08 µM): 0.52
relative viability (LK-2; first compound 0.253 µM): 0.543
relative viability (LK-2; first compound 0.8 µM): 0.493
relative viability (LK-2; first compound 2.53 µM): 0.37
relative viability (LK-2; first compound 8 µM): 0.371
relative viability (NCI-H2087; first compound 0.08 µM): 0.904
relative viability (NCI-H2087; first compound 0.253 µM): 0.869
relative viability (NCI-H2087; first compound 0.8 µM): 0.917
relative viability (NCI-H2087; first compound 2.53 µM): 1.04
relative viability (NCI-H2087; first compound 8 µM): 0.96
relative viability (HCC-78; first compound 0.08 µM): 0.531
relative viability (HCC-78; first compound 0.253 µM): 0.469
relative viability (HCC-78; first compound 0.8 µM): 0.549
relative viability (HCC-78; first compound 2.53 µM): 0.46
relative viability (HCC-78; first compound 8 µM): 0.536
relative viability (NCI-H1944; first compound 0.08 µM): 1.02
relative viability (NCI-H1944; first compound 0.253 µM): 1.07
relative viability (NCI-H1944; first compound 0.8 µM): 1.05
relative viability (NCI-H1944; first compound 2.53 µM): 1.3
relative viability (NCI-H1944; first compound 8 µM): 1.22
